According to PubChem BioAssay (NCI):
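The compound was tested at five concentrations on cells cultured in 96-well plates, with a 48-hour exposure period. GI50: concentration for 50% inhibition of growth. TGI: total growth inhibition.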

Tests used:
Assay in all cases: growth of human tumour cells (NCI), 48 h
HL-60(TB) leukemia = tested on: HL-60(TB) leukemia
EKVX NSCLC = tested on: EKVX NSCLC
HCT-116 colon = tested on: HCT-116 colon
MCF7 breast = tested on: MCF7 breast
IGROV1 ovarian = tested on: IGROV1 ovarian
MDA-MB-231 breast = tested on: MDA-MB-231 breast
SK-MEL-28 melanoma = tested on: SK-MEL-28 melanoma
HCC-2998 colon = tested on: HCC-2998 colon
LOX IMVI melanoma = tested on: LOX IMVI melanoma
NCI-H226 lung = tested on: NCI-H226 lung

SMILES	TGI (HL-60(TB) leukemia) [µM]	TGI (EKVX NSCLC) [µM]	TGI (HCT-116 colon) [µM]	TGI (MCF7 breast) [µM]	TGI (IGROV1 ovarian) [µM]	TGI (MDA-MB-231 breast) [µM]	TGI (SK-MEL-28 melanoma) [µM]	TGI (HCC-2998 colon) [µM]	TGI (LOX IMVI melanoma) [µM]	GI50 (HL-60(TB) leukemia) [µM]	GI50 (EKVX NSCLC) [µM]	GI50 (HCT-116 colon) [µM]	GI50 (IGROV1 ovarian) [µM]	GI50 (MDA-MB-231 breast) [µM]	GI50 (SK-MEL-28 melanoma) [µM]	GI50 (NCI-H226 lung) [µM]	TGI (NCI-H226 lung) [µM]	GI50 (HCC-2998 colon) [µM]	GI50 (LOX IMVI melanoma) [µM]	GI50 (MCF7 breast) [µM]
OC1(c2ccccc2)C2CC=CC2C1(c1ccccc1)c1ccccc1 (centres undefined)	95.7	76.4	> 100	79.4	48.9	> 100	> 100	48.3	37.9											
C=C(C)[C@@H]1CCC=C2CC[C@]3(C)[C@H](CC[C@@H]4[C@@]5(C)CCCNC(C)(C)[C@@H]5CC[C@]43C)[C@H]21	3.57	5.6	3.2		3.54	3.31	4.07			1.58	2.17	1.79	1.91	1.77	2.03	2.8	9.14			
C=C1C(=O)O[C@H]2[C@H]1CC/C(COC(=O)CCCCCC(=O)OC/C1=C/CC[C@@]3(C)O[C@H]3[C@H]3OC(=O)C(=C)[C@@H]3CC1)=C\CC[C@@]1(C)O[C@@H]21	3.66	11.5			9.32	3.62	6.84	3.98	2.88	0.694	2.84		2.51	1.68	2.45	2.02	5.53	1.95	1.47	
C=C1CC(CC)(CCN2C(=O)c3ccccc3C2=O)OC1=O (centres undefined)	> 100	31.1	25.4		> 100			32.1	29.6								40.6			
C#C[C@]1(O)CC[C@H]2[C@@H]3CC=C4c5sc(Nc6cc(F)ccc6F)nc5CC[C@]4(C)[C@H]3CC[C@@]21C	7.96	3.06		3.26	3.73	4.09	2.34	3.19	2.87	2.54	1.53		1.68	1.82	1.09			1.65	1.49	1.5
CCCn1c2c(c3c(O)cccc31)C(=O)c1ccccc1-2		> 100	> 100	> 100	> 100	73.8	39.1	> 100	> 100		15.9	29.2	10.9	22.1	10.4	28.3	> 100	9.72	31.6	58
CO/N=C(\COc1ccc2c(=O)c3ccccc3oc2c1)c1ccccc1	> 100	50.6	> 100	> 100	> 100	57.1	> 100		> 100	> 100	20.9	68.6	39.6	25.2	> 100	40.8	> 100		35.9	37.9
CC(C)N(C(=O)c1cccc(C(=O)N(C(C)C)C(C)C)c1)C(C)C	> 100	> 100	> 100		> 100		> 100	> 100	> 100								> 100			
COC(=O)CCC(NC(=S)N/N=C(\C)c1ccc[nH]1)C(=O)OC (centres undefined)	> 100	> 100	> 100		> 100		> 100	> 100	> 100								> 100			
Cc1cc(N(CCC#N)S(=O)(=O)c2ccccc2)ccc1/C=C1\N=C(c2ccc(Cl)cc2)OC1=O	> 100	> 100	> 100		> 100		> 100	> 100	> 100								> 100			
CCO/C=C1\N=C(c2ccc(Cl)c(Cl)c2)OC1=O	> 100	> 100			> 100		> 100	> 100	> 100								> 100			
CC(C)C1CO[C@]2(C)CCC(=O)N12 (some centres undefined)	> 100	> 100	> 100		> 100		> 100										> 100			
C#CC1(O)CCC2C3CCc4cc(Oc5nc(F)nc(-c6c7ccccc7c7n6CCS7)n5)ccc4C3CC[C@@]21C (some centres undefined)	54.5		25.8		> 100		57.9	41.7									92.5			
COc1cc(CNc2nc3c(N)cc(C(F)(F)F)cc3nc2-c2ccccc2)cc(OC)c1OC	> 100	25.6	> 100		> 100		> 100	> 100	> 100	> 100			> 100				> 100			
ClC(Cl)=C(Cl)C1(Cl)CC1COCc1ccccc1 (centres undefined)	41.9	> 100			> 100		> 100	81.2	54.8								95.6			
N#C/C(=C/C=C/c1ccco1)C(N)=O		> 10		> 10	> 10	> 10	> 10	> 10	> 10								> 10			
O=c1cccccc1[O-].O=c1cccccc1[O-].O=c1cccccc1[O-].[Eu+3]	74.5	> 100	76.7		> 100		> 100	> 100	> 100								> 100			
O=c1c2c([nH]c3nccn13)CCC2	> 10	> 10	> 10	> 10	> 10	> 10	> 10		> 10								> 10			
CCC[CH2][Sn]([CH2]CCC)([O]C(=O)c1cc(OC)c(OC)cc1OC)[O][Sn]([CH2]CCC)([CH2]CCC)[O]C(=O)c1cc(OC)c(OC)cc1OC	1.31	3.09	1.82		2.68		1.02	2.41	0.782	0.288	1.7	0.67	1.17		0.297	0.507	1.08	1.1	0.257	
CCCn1c(SCCSc2c3ccccc3c(-c3nc(F)nc(F)n3)n2CCC)c2ccccc2c1-c1nc(F)nc(F)n1	> 100	> 100	> 100				> 100	> 100												
